Measurements from patent US20040259244A1, “Methods, compositions, and growth and differentiation factors for insulin-producing cells” (priority 2002, published 2004).
Read-outs that look alike come from different tables or passages of the source. Square brackets hold non-standard residues; d marks the D form. Ends that are not written are not given here. sY = N[C@@H](Cc1ccc(OS(=O)(=O)O)cc1)C(=O)O

Tested on: conversion of stem cells into insulin producing cells
Type: cell-based
[1] = statistical analysis of insulin content of supernatants, 3 donors, combinatorial array in alginate

Compound: CC[C@H](C)[C@@H]1NC(=O)[C@H](CCCNC(=N)N)NC(=O)[C@H](CC(=O)O)NC(=O)[C@H](CCSC)NC(=O)[C@H](CCCNC(=N)N)NC(=O)CNC(=O)CNC(=O)[C@H](Cc2ccccc2)NC(=O)[C@@H](NC(=O)[C@H](CO)NC(=O)[C@H](CO)NC(=O)[C@H](CCCNC(=N)N)NC(=O)[C@H](CCCNC(=N)N)NC(=O)[C@H](CC(C)C)NC(=O)[C@@H](N)CO)CSSC[C@@H](C(=O)N[C@@H](CC(N)=O)C(=O)N[C@@H](CO)C(=O)N[C@@H](Cc2ccccc2)C(=O)N[C@@H](CCCNC(=N)N)C(=O)N[C@@H](Cc2ccc(O)cc2)C(=O)O)NC(=O)CNC(=O)[C@H](CC(C)C)NC(=O)CNC(=O)[C@H](CO)NC(=O)[C@H](CCC(N)=O)NC(=O)[C@H](C)NC(=O)CNC1=O [ANP]
- effect on the conversion of stem cells into insulin producing cells [1]: potential negative effect

Compound: C[C@]12C[C@H](O)[C@H]3[C@@H](CCC4=CC(=O)CC[C@@]43C)[C@@H]1CC[C@@H]2C(=O)CO [Corticosterone]
- effect on the conversion of stem cells into insulin producing cells [1]: potential positive effect

Compound: CCCCCC(=O)c1c(O)c(Cl)c(OC)c(Cl)c1O [DIF-1]
- effect on the conversion of stem cells into insulin producing cells [1]: potential negative effect

Compound: CN(C)C=O [DMF, n-n-dimethylformamide]
- effect on the conversion of stem cells into insulin producing cells [1]: potential positive effect

Compound: C[S+](C)[O-] [DMSO, dimethyl sulfoxide]
- effect on the conversion of stem cells into insulin producing cells [1]: potential positive effect

Compound: NC(=O)c1cccnc1 [Nictotinamide, Nicotinamide]
- effect on the conversion of stem cells into insulin producing cells [1]: potential positive effect

Compound: CC(=O)[C@H]1CC[C@H]2[C@@H]3CCC4=CC(=O)CC[C@]4(C)[C@H]3CC[C@]12C [Progesterone]
- effect on the conversion of stem cells into insulin producing cells [1]: potential negative effect

Compound: NCCCCN [Putrescine]
- effect on the conversion of stem cells into insulin producing cells [1]: potential negative effect

Compound: N[C@@H](Cc1cc(I)c(Oc2ccc(O)c(I)c2)c(I)c1)C(=O)O [T3, Triiodothyronine]
- effect on the conversion of stem cells into insulin producing cells [1]: potential negative effect

Compound: Cc1c(C)c2c(c(C)c1O)CCC(C)(C(=O)O)O2 (stereo not drawn) [Trolox]
- effect on the conversion of stem cells into insulin producing cells [1]: potential negative effect

Compound: CCCC(=O)[O-].[Na+] [n Butyric Acid]
- effect on the conversion of stem cells into insulin producing cells [1]: potential negative effect

Compound: CCK8 amide: Cholecystokinin (CCK8-amide) (DYMGWMDF-NH2; ends and bridges not checked; UniProt P06307 96-103, looked up)
- effect on the conversion of stem cells into insulin producing cells [1]: potential negative effect

Compound: CCK8 sulfated: Cholecystokinin octapeptide, sulfated (D[sY]MGWMDF-NH2; ends and bridges not checked; UniProt P06307 96-103, looked up)
- effect on the conversion of stem cells into insulin producing cells [1]: potential positive effect

Compound: CNP: A 22-amino acid peptide that is a member of the natriuretic peptide family (GLSKGCFGLKLDRIGSMSGLGC; ends and bridges not checked; cysteine pairing not given here; UniProt P23582 105-126, looked up)
- effect on the conversion of stem cells into insulin producing cells [1]: potential positive effect

Compound: Caerulein
- effect on the conversion of stem cells into insulin producing cells [1]: potential positive effect

Compound: Cholera Toxin B Subunit
- effect on the conversion of stem cells into insulin producing cells: potential positive effect

Compound: EGF: epidermal growth factor (NSDSECPLSHDGYCLHDGVCMYIEALDKYACNCVVGYIGERCQYRDLKWWELR; UniProt P01133 971-1023, looked up)
- effect on the conversion of stem cells into insulin producing cells [1]: potential positive effect

Compound: Endothelin 1: polypeptide consisting of 21 amino acid residues (CSCSSLMDKECVYFCHLDIIW; ends and bridges not checked; cysteine pairing not given here; UniProt P05305 53-73, looked up)
- effect on the conversion of stem cells into insulin producing cells [1]: potential negative effect

Compound: Exendin 4: a long acting analog of GLP-1
- effect on the conversion of stem cells into insulin producing cells [1]: potential positive effect

Compound: FGF-1: FGF acidic
- effect on the conversion of stem cells into insulin producing cells [1]: potential positive effect

Compound: FGF-2: fibroblast growth factor 2 (FGF-basic)
- effect on the conversion of stem cells into insulin producing cells [1]: potential negative effect

Compound: GH: growth hormone
- effect on the conversion of stem cells into insulin producing cells [1]: potential negative effect

Compound: GLP-1: Glucagon like-peptide 1, (7-36) amide, human (HAEGTFTSDVSSYLEGQAAKEFIAWLVKGR-NH2; UniProt P01275 98-127, looked up)
- effect on the conversion of stem cells into insulin producing cells [1]: potential negative effect

Compound: GRP: Gastrin Releasing Peptide (VPLPAGGGTVLTKMYPRGNHWAVGHLM; ends and bridges not checked; UniProt P07492 24-50, looked up)
- effect on the conversion of stem cells into insulin producing cells [1]: potential positive effect

Compound: HGF: hepatocyte growth factor
- effect on the conversion of stem cells into insulin producing cells [1]: potential negative effect

Compound: IGF-1: Insulin-like growth factor-I
- effect on the conversion of stem cells into insulin producing cells [1]: potential positive effect

Compound: IGF-2: Insulin-like growth factor 2
- effect on the conversion of stem cells into insulin producing cells [1]: potential positive effect

Compound: Insulin: Insulin as medium supplement
- effect on the conversion of stem cells into insulin producing cells [1]: potential positive effect

Compound: LIF: leukemia inhibitory factor, human
- effect on the conversion of stem cells into insulin producing cells [1]: potential negative effect

Compound: Laminin
- effect on the conversion of stem cells into insulin producing cells [1]: potential positive effect

Compound: Leu-Enkephalin: Natural opiate pentapeptide (YGGFL) (Leu-enkephalin; UniProt P01210 230-234, looked up)
- effect on the conversion of stem cells into insulin producing cells [1]: potential positive effect

Compound: Met-Enkephalin
- effect on the conversion of stem cells into insulin producing cells [1]: potential positive effect

Compound: NGF beta: Nerve growth factor
- effect on the conversion of stem cells into insulin producing cells [1]: potential positive effect

Compound: Substance P: neuropeptide, full length (RPKPQQFFGLM; ends and bridges not checked; UniProt P20366 58-68, looked up)
- effect on the conversion of stem cells into insulin producing cells [1]: potential positive effect

Compound: TGF alpha: Transforming growth factor alpha
- effect on the conversion of stem cells into insulin producing cells [1]: potential negative effect

Compound: TGF beta 1: Transforming growth factor beta 1
- effect on the conversion of stem cells into insulin producing cells [1]: potential negative effect

Compound: Transferrin: a beta globulin in blood plasma capable of combining with ferric ions
- effect on the conversion of stem cells into insulin producing cells [1]: potential positive effect

Compound: VIP: Vasoactive Intestinal Peptide (HSDAVFTDNYTRLRKQMAVKKYLNSILN; ends and bridges not checked; UniProt P01282 125-152, looked up)
- effect on the conversion of stem cells into insulin producing cells [1]: potential positive effect

Compound: vEGF
- effect on the conversion of stem cells into insulin producing cells [1]: potential positive effect
